Results reported in US20180289678A1, “PHARMACEUTICAL COMPOSITION, PHARMACEUTICAL DOSAGE FORM, PROCESS FOR THEIR PREPARATION, METHODS FOR TREATING AND USES THEREOF” (Boehringer Ingelheim International GmbH, priority 2009, published 2018).
Where two headings read alike, the source gives them in different places.

Assay: Study .5: single dose study in healthy Japanese volunteers, pharmacokinetic parameters
Format: in vivo, human
Conditions: Study .5, fasted
Experimental: 5. Pharmacokinetic Parameters
The pharmacokinetic parameters of pharmaceutical compositions and pharmaceutical dosage forms are assessed in healthy volunteer and patient populations. In the studies shown below, the participants fasted on the day of sampling, unless as otherwise stated (see for example study .3). The active substance in the studies below is the compound (I.9), preferably in the crystalline form (I.9X), and the dose of active ingredient is indicated in mg.
For the quantification of plasma concentrations of the active ingredient, 2.7 mL of blood was collected and transferred into an EDTA (ethylendiaminetetraacetic acid)-anticoagulant blood drawing tube. The EDTA-anticoagulated blood samples were centrifuged immediately after collection. Centrifugation lasted for about 10 minutes (at about 2,000×gf to 4,000×gf) at 4-8° C. or within 30 minutes while stored on ice. Concentrations of active substance in EDTA human plasma samples were quantitated using a HPLC/MS/MS method. The assay method comprised a solid phase supported liquid-liquid extraction of human plasma coupled with HPLC/MS/MS determination of the extracted samples. The HPLC/MS/MS assay was validated for the range of 1.11 to 1110 nM in human plasma.
Study .5: Single dose study in a healthy volunteer population of N=48 (Japanese volunteers). Healthy volunteers were administered tablets as described in Example 11 (section Examples of formulations).
AUC0-inf:area under the concentration-time curve of the analyte in plasma over the time interval from 0 extrapolated to infinity.
Cmax: maximum concentration of the analyte in plasma.
Tmax: time from dosing to maximum concentration.

**Q.** For `OC[C@H]1O[C@@H](c2ccc(Cl)c(Cc3ccc(O[C@H]4CCOC4)cc3)c2)[C@H](O)[C@@H](O)[C@@H]1O` [Compound (I.9), 1-chloro-4-(β-D-glucopyranos-1-yl)-2-[4-((S)-tetrahydrofuran-3-yloxy)-benzyl]-benzene], which “AUC0-inf Max” value (5 mg single dose) is on record?
**A.** 1.31 µM·h

**Q.** And the “AUC0-inf Min” value (5 mg single dose)?
**A.** 1 µM·h

**Q.** What about the “AUC0-inf,norm Max” value (5 mg single dose) of the same molecule?
**A.** 262 nmol·h/L/mg

**Q.** What about the “AUC0-inf,norm Median” value (5 mg single dose) of the same molecule?
**A.** 230 nmol·h/L/mg

**Q.** And the “AUC0-inf,norm Min” value (5 mg single dose)?
**A.** 200 nmol·h/L/mg

**Q.** What about the “AUC0-inf,norm gMean” value (5 mg single dose) of the same molecule?
**A.** 228 nmol·h/L/mg

**Q.** What about the “Cmax,norm Max” value (5 mg single dose) of the same molecule?
**A.** 46 nmol/L/mg

**Q.** And the “Cmax,norm Median” value (5 mg single dose)?
**A.** 31 nmol/L/mg

**Q.** And the “Cmax,norm Min” value (5 mg single dose)?
**A.** 25 nmol/L/mg

**Q.** What about the “Cmax,norm gMean” value (5 mg single dose) of the same molecule?
**A.** 32 nmol/L/mg

**Q.** And the “tmax Min” value (5 mg single dose)?
**A.** 0.750 h

**Q.** And the Cmax (5 mg single dose, read-out: Cmax Max)?
**A.** 230 nM

**Q.** And the Cmax (5 mg single dose, read-out: Cmax Min)?
**A.** 123 nM

**Q.** And the “AUC0-inf Max” value (10 mg single dose)?
**A.** 3.19 µM·h

**Q.** What about the “AUC0-inf Min” value (10 mg single dose) of the same molecule?
**A.** 2.34 µM·h

**Q.** What about the “AUC0-inf,norm Max” value (10 mg single dose) of the same molecule?
**A.** 319 nmol·h/L/mg

**Q.** What about the “AUC0-inf,norm Median” value (10 mg single dose) of the same molecule?
**A.** 264 nmol·h/L/mg

**Q.** What about the “AUC0-inf,norm Min” value (10 mg single dose) of the same molecule?
**A.** 234 nmol·h/L/mg

**Q.** And the “AUC0-inf,norm gMean” value (10 mg single dose)?
**A.** 266 nmol·h/L/mg

**Q.** What about the “Cmax,norm Max” value (10 mg single dose) of the same molecule?
**A.** 45 nmol/L/mg

**Q.** And the “Cmax,norm Median” value (10 mg single dose)?
**A.** 40 nmol/L/mg

**Q.** And the “Cmax,norm Min” value (10 mg single dose)?
**A.** 24 nmol/L/mg

**Q.** And the “Cmax,norm gMean” value (10 mg single dose)?
**A.** 37 nmol/L/mg

**Q.** What about the “tmax Max” value (10 mg single dose) of the same molecule?
**A.** 3.00 h

**Q.** And the “tmax Min” value (10 mg single dose)?
**A.** 1.00 h

**Q.** What about the Cmax (10 mg single dose, read-out: Cmax Max) of the same molecule?
**A.** 454 nM

**Q.** What about the Cmax (10 mg single dose, read-out: Cmax Min) of the same molecule?
**A.** 242 nM

**Q.** And the “AUC0-inf Max” value (25 mg single dose)?
**A.** 7.15 µM·h

**Q.** And the “AUC0-inf Min” value (25 mg single dose)?
**A.** 5.04 µM·h

**Q.** What about the “AUC0-inf,norm Max” value (25 mg single dose) of the same molecule?
**A.** 286 nmol·h/L/mg

**Q.** And the “AUC0-inf,norm Median” value (25 mg single dose)?
**A.** 254 nmol·h/L/mg

**Q.** And the “AUC0-inf,norm Min” value (25 mg single dose)?
**A.** 202 nmol·h/L/mg

**Q.** What about the “AUC0-inf,norm gMean” value (25 mg single dose) of the same molecule?
**A.** 245 nmol·h/L/mg

**Q.** And the “Cmax,norm Max” value (25 mg single dose)?
**A.** 32 nmol/L/mg

**Q.** What about the “Cmax,norm Median” value (25 mg single dose) of the same molecule?
**A.** 26 nmol/L/mg

**Q.** And the “Cmax,norm Min” value (25 mg single dose)?
**A.** 24 nmol/L/mg

**Q.** What about the “Cmax,norm gMean” value (25 mg single dose) of the same molecule?
**A.** 26 nmol/L/mg

**Q.** What about the “tmax Max” value (25 mg single dose) of the same molecule?
**A.** 4.00 h

**Q.** What about the “tmax Min” value (25 mg single dose) of the same molecule?
**A.** 1.00 h

**Q.** And the Cmax (25 mg single dose, read-out: Cmax Max)?
**A.** 790 nM

**Q.** And the Cmax (25 mg single dose, read-out: Cmax Min)?
**A.** 605 nM

**Q.** And the AUC(0-inf) (human, plasma, oral, 5 mg, 5 mg single dose, read-out: AUC0-inf Mean)?
**A.** 1.14 µM·h

**Q.** And the AUC(0-inf) (human, plasma, oral, 5 mg, 5 mg single dose, read-out: AUC0-inf Median)?
**A.** 1.15 µM·h

**Q.** What about the AUC(0-inf) (human, plasma, oral, 5 mg, 5 mg single dose, read-out: AUC0-inf gMean) of the same molecule?
**A.** 1.14 µM·h

**Q.** And the Cmax (human, plasma, oral, 5 mg, 5 mg single dose, read-out: Cmax Mean)?
**A.** 166 nM

**Q.** And the Cmax (human, plasma, oral, 5 mg, 5 mg single dose, read-out: Cmax Median)?
**A.** 153 nM

**Q.** What about the Cmax (human, plasma, oral, 5 mg, 5 mg single dose, read-out: Cmax gMean) of the same molecule?
**A.** 161 nM

**Q.** And the Tmax (human, plasma, oral, 5 mg, 5 mg single dose, read-out: tmax Mean)?
**A.** 1.63 h

**Q.** What about the Tmax (human, plasma, oral, 5 mg, 5 mg single dose, read-out: tmax Median) of the same molecule?
**A.** 2 h

**Q.** And the Tmax (human, plasma, oral, 5 mg, 5 mg single dose, read-out: tmax gMean)?
**A.** 1.51 h

**Q.** And the AUC(0-inf) (human, plasma, oral, 10 mg, 10 mg single dose, read-out: AUC0-inf Mean)?
**A.** 2.67 µM·h

**Q.** And the AUC(0-inf) (human, plasma, oral, 10 mg, 10 mg single dose, read-out: AUC0-inf Median)?
**A.** 2.64 µM·h

**Q.** What about the AUC(0-inf) (human, plasma, oral, 10 mg, 10 mg single dose, read-out: AUC0-inf gMean) of the same molecule?
**A.** 2.66 µM·h

**Q.** And the Cmax (human, plasma, oral, 10 mg, 10 mg single dose, read-out: Cmax Mean)?
**A.** 379 nM

**Q.** What about the Cmax (human, plasma, oral, 10 mg, 10 mg single dose, read-out: Cmax Median) of the same molecule?
**A.** 398 nM

**Q.** What about the Cmax (human, plasma, oral, 10 mg, 10 mg single dose, read-out: Cmax gMean) of the same molecule?
**A.** 372 nM

**Q.** And the Tmax (human, plasma, oral, 10 mg, 10 mg single dose, read-out: tmax Mean)?
**A.** 1.67 h

**Q.** And the Tmax (human, plasma, oral, 10 mg, 10 mg single dose, read-out: tmax Median)?
**A.** 1.5 h

**Q.** And the Tmax (human, plasma, oral, 10 mg, 10 mg single dose, read-out: tmax gMean)?
**A.** 1.54 h

**Q.** And the AUC(0-inf) (human, plasma, oral, 25 mg, 25 mg single dose, read-out: AUC0-inf Mean)?
**A.** 6.18 µM·h

**Q.** And the AUC(0-inf) (human, plasma, oral, 25 mg, 25 mg single dose, read-out: AUC0-inf Median)?
**A.** 6.34 µM·h

**Q.** And the AUC(0-inf) (human, plasma, oral, 25 mg, 25 mg single dose, read-out: AUC0-inf gMean)?
**A.** 6.13 µM·h

**Q.** And the Cmax (human, plasma, oral, 25 mg, 25 mg single dose, read-out: Cmax Mean)?
**A.** 661 nM

**Q.** What about the Cmax (human, plasma, oral, 25 mg, 25 mg single dose, read-out: Cmax Median) of the same molecule?
**A.** 643 nM

**Q.** And the Cmax (human, plasma, oral, 25 mg, 25 mg single dose, read-out: Cmax gMean)?
**A.** 658 nM

**Q.** And the Tmax (human, plasma, oral, 25 mg, 25 mg single dose, read-out: tmax Mean)?
**A.** 2.33 h

**Q.** And the Tmax (human, plasma, oral, 25 mg, 25 mg single dose, read-out: tmax Median)?
**A.** 2 h

**Q.** What about the Tmax (human, plasma, oral, 25 mg, 25 mg single dose, read-out: tmax gMean) of the same molecule?
**A.** 2.14 h
